Four compounds from US20080051285A1 (priority 2004, published 2008) can be followed below.

Read-outs that look alike come from different tables or passages of the source.

The assay has as its system Pyricularia oryzae. It counts as in vivo. Particulars: individual active compound, protective, inoculated next day, assessed after 6 days.

Take `CC1CCN(c2c(-c3c(F)cccc3Cl)c(Cl)nc3ncnn23)CC1` [A]: the “Efficacy in % of the untreated control” value is, setting by setting: (1 ppm in the spray liquor) 0%; (4 ppm in the spray liquor) 13%.

Regarding `C[C@H](Nc1c(-c2c(F)cc(F)cc2F)c(Cl)nc2ncnn12)C(F)(F)F` [B], the “Efficacy in % of the untreated control” value worked out at 13% (1 ppm in the spray liquor) and 57% (4 ppm in the spray liquor).

For the compound `CC1CCN(c2c(-c3c(F)cc(F)cc3F)c(Cl)nc3ncnn23)CC1` [compound I, 5-chloro-7-(4-methylpiperidin-1-yl)-6-(2,4,6-trifluorophenyl)-[1,2,4]tri-azolo[1,5-a]pyrimidine], the “Efficacy in % of the untreated control” value worked out at 13% (1 ppm in the spray liquor) and 28% (4 ppm in the spray liquor).

Turning to `C=CC1(C)OC(=O)N(c2cc(Cl)cc(Cl)c2)C1=O` (centres unmarked) [compound II, 3-(3,5-dichlorophenyl)-5-methyl-5-vinyloxazolidine-2,4-dione], the “Efficacy in % of the untreated control” value reads like this: (1 ppm in the spray liquor) 0%; (4 ppm in the spray liquor) 0%.
